T1: ZmChi19A (Zea mays, UniProt B6TR38, E147A/E169A)
T1 construct: cDNA from maize root; signal peptide removed; N-terminal 10xHis-SUMO tag kept, TEV site; CBD, catalytic domain and flexible C-terminal domain; pET28b, E. coli; FPLC-purified
T1 sequence (B6TR38 26-334 E147A/E169A limits assumed): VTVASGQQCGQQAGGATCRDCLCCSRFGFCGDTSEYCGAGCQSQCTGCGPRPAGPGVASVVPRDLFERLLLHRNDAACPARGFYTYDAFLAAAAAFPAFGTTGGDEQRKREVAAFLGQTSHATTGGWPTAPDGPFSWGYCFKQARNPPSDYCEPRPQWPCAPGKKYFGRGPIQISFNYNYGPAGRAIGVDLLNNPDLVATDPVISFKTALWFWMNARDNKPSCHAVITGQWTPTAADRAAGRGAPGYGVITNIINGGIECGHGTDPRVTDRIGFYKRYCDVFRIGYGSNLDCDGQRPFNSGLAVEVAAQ

B1: CspCh18A (Chitinophaga oryzae) (protein)
chain: CKKDEARPDNPQTKSEPRVETVTKAGGKSVCYVEVNSNSLLNTGKYTLTTGGQQLFDIAIIFAANINYNTTTGKAVLYNNPNVTNVLVNKNTQIVPLQNKGMKVLLSILGNHQGAGFCNFTSRAAAKAFAQQLADTANYYGLDGIDFDDEYADYGNNGLPQPNDSSFVMLLDELRKLMPTKIISFYYYGPAASRLSWGGKKAGDFINYSWNAMYGTYSVPNVAGLTKANLGPAAVDIQATSQSTANWLATQTKNNGYGIYLWYNLTSTDKHVYFSGVSNILYGSSVTYTP
notes: signal peptide removed; TEV site, His tag; pET28a, E. coli; TIM-barrel catalytic domain, no CBD; FPLC-purified

Key:
ZmChi19A = molecular target: T1, ZmChi19A; assay: 4-MU release fluorescence, relative activity; format: biochemical; details: SUMO fusion; catalytic residues mutated
[1] = substrate: CC(=O)N[C@H]1[C@H](Oc2ccc3c(C)cc(=O)oc3c2)O[C@H](CO)[C@@H](O[C@@H]2O[C@H](CO)[C@@H](O[C@@H]3O[C@H](CO)[C@@H](O)[C@H](O)[C@H]3NC(C)=O)[C@H](O)[C@H]2NC(C)=O)[C@@H]1O; assay: 4-MU release fluorescence, Langmuir fit; format: biochemical, Chitinophaga oryzae; details: 50 °C, pH 8

Row | Molecule | 4-MU release fluorescence, relative activity (ZmChi19A) | Km [1] [µM]
1 | CC(=O)N[C@H]1[C@H](Oc2ccc3c(C)cc(=O)oc3c2)O[C@H](CO)[C@@H](O[C@@H]2O[C@H](CO)[C@@H](O[C@@H]3O[C@H](CO)[C@@H](O)[C@H](O)[C@H]3NC(C)=O)[C@H](O)[C@H]2NC(C)=O)[C@@H]1O [4-MU-GlcNAc3] | ZmChi19A(E147A,E169A) showed almost complete loss of activity | –
2 | B1 | – | 37

Source: publication PMC10867124, “Plant root associated chitinases: structures and functions” (Frontiers in Plant Science, 2024)
